# From patent publication US20250326795A1, “USE OF D-ENANTIOMERIC PEPTIDE LIGANDS OF MONOMERIC TAU FOR THE THERAPY OF VARIOUS TAUOPATHIES” (PRIAVOID GMBH, priority 2021, published 2025)
# Like-named read-outs stand apart in the source and are kept apart here. Where a SMILES comes first, the peptide text is derived from it. [ ]: non-standard residue; d: D form.
# Assays:
# tau = tau (Homo sapiens, UniProt P10636); experiment: ThT assay of heparin-induced tau aggregation (with AFM analysis); assay type: biochemical; conditions: 15 μM tau, 8 μM heparin, 20 μM ThT; for effect on tau aggregation (ThT analysis): 15 μM peptide, 37° C., PBS pH 7.4 (FIG. 1)
# Method: The effects of TF2D-1 and TF2D-5 on tau aggregation are shown. The ThT assay was performed by incubation of 15 μM tau with 8 μM heparin, 20 μM THT and 15 μM of either of the two peptides TF2D-1 or TF2D-5 at 37° C. in PBS pH 7.4. The sample without addition of the peptide is shown in red. The samples in which TF2D-1 or TF2D-5 was present are shown in green (TF2D-1) and blue (TF2D-5).
# Shown are the effects of TF2D-5 on tau aggregation. The ThT assay was performed by incubation of 15 μM tau with 8 μM heparin, 20 μM ThT, 10% DMSO and different concentrations of TF2D-5 at 37° C. pH 7.0. The images next to the graph show the respective AFM measurements of each sample taken after 5 days. […] The image marked with C corresponds to the blue ThT curve without dilution, where TF2D-5 was added after 24 hours. All AFM measurements were performed by drying 1 μl on a mica, followed by two wash steps with 100 μl water and measurement on JPK Nanowizard3 with intermittent contact air and an OMCL AC160TS as cantilever.
# [1] = target: T1, monomeric full-length tau 441 (Homo sapiens, UniProt P10636); experiment: SPR measurement of peptide binding to tau; conditions: for Kd: SPR T200 Biacore, peptide immobilised on CM5 chip, monomeric tau as analyte, TBS pH 7.4, 0.05% Tween 20, DTT, 1:1 model (FIG. 2b)
# T1 construct: SPR measurement of TF2D-5 and TF2D-5a with full-length tau 441
# Method: SPR measurements of TF2D-5 with the analyte tau. Seven concentrations of tau were prepared for the measurement, with the highest concentration at 100 nM and the lowest concentration at 1.56 nM. The running buffer contained TBS with 0.1% Tween. The Koff was determined to be approximately 6×10-5 s-1.
# The tau concentration during the measurement varied from 3.125 nM to 25 nM. […] Tau was used at concentrations from 31.25 nM to 500 nM. SPR measurements of A and B were recorded on a T200 Biacore instrument, the respective peptide was immobilised on a CM5 chip from Cytiva, while monomeric tau served as the analyte. The tests were performed using TBS pH 7.4, 0.05% Tween […] DTT as running buffer. The fit calculation was performed using the internal evaluation software of the T200 Biacore. A 1:1 model was used for both fits.
# [2] = Stability study in different simulated human body fluids; assay type: in vitro ADME; conditions: simulated gastric fluid pH 1, simulated intestinal fluid pH 6.8, human blood plasma, human liver microsomes (FIG. 6)
# Method: Stability study of TF2D-5 and TF2D-5a in different simulated human body fluids. A) Stability of the peptides in simulated gastric fluid (SGF). The simulated gastric fluid consisted of 2 mg/ml sodium chloride, 3.2 mg/ml pepsin and 80 mM HCl; pH 1. B) Stability of TF2D-5 and TF2D-5a in simulated intestinal fluid (SIF). Simulated intestinal fluid consisted of 6.8 mg/ml potassium dihydrogen phosphate, 10 mg/ml pancreatic powder and 15.4 mM NaOH; pH 6.8. C) Stability of TF2D 5 and TF2D-5a in human blood plasma. Human K3EDTA blood plasma was obtained from BioTrend. D) Stability of TF2D-5 and TF2D-5a in human liver microsomes. Human liver microsomes consisted of 6 mg/ml protein (containing cytochrome P450 (CYP) enzymes), 75 mM sucrose, 1.3 mM NADPH, 3.3 mM D-glucose-6-phosphate, 0.2 u/ml D-glucose-6-phosphate dehydrogenase, 3.3 mM magnesium chloride and 100 mM potassium phosphate pH 7.4.
# tau in full-length = target: T2, tau in full-length (Homo sapiens, UniProt P10636); experiment: MST measurement of CF633-labelled peptides with tau in full-length; assay type: binding; conditions: read-out: KD (MST, Boltzmann fit)
# T2 construct: MST measurement of TF2D-5, TF2D-5a and CP1 with tau in full-length
# Method: MST measurement of TF2D-5, TF2D-5a and CP1 with tau in full-length. A) Boltzmann fit of TF2D-5 MST measurements with tau in full-length. TF2D-5 was labelled with CF633. The concentration of TF2D-5 was 500 nM, while the concentration of tau in full-length was between 2.5 μM and 0.2 pM. The measurement was performed in 1×PBS pH 7.4 with 150 mM NaCl. […] B) Boltzmann fit of TF2D-5a MST measurements with tau in full length. TF2D-5a was labelled with CF633. The concentration of TF2D-5a was 62.5 nM, while the concentration of tau in full-length varied between 300 nM and 0.5 nM. The measurement was performed in 0.1 M sodium phosphate buffer pH 7.4 with 75 mM sodium sulphate and 0.05% Tween 20. […] C) Average of the CP1-MST measurements with tau in full length. CP1 consists of the same amino acids as TF2D-5, but with a different distribution of the amino acids. CP1 was labelled with CF633. The concentration of CP1 was 62.5 nM, while the concentration of tau in full-length varied between […] and 0.2 pM. The measurement was performed in 0.1 M sodium phosphate buffer pH 7.4 with 75 mM sodium sulphate and 0.05% Tween 20. […] D) Calculated KDs of the individual peptides to tau in full-length at a glance. All experiments were repeated four times and the average of all measurements was calculated, which in turn was used to calculate the fits (Boltzmann).
# tauk18 (LM)-YFP cells = experiment: Inhibition of tau aggregation in cells seeded with sonified tau fibrils; assay type: cell-based; conditions: three-day treatment
# Method: A) TF2D-5a and the D-peptide CP-1, as negative control, were tested for their ability to inhibit the tau aggregation in tauk18 (LM)-YFP cells. The scale bar corresponds to 50 μm and applies to b-d. The significance was calculated using a one-way ANOVA followed by Dunnett's test for multiple comparisons. Three asterisks represent a p-value of less than 0.001 and four asterisks a p-value of less than 0.0001.
# Chain of tau (P10636 1-441 isoform P10636-8): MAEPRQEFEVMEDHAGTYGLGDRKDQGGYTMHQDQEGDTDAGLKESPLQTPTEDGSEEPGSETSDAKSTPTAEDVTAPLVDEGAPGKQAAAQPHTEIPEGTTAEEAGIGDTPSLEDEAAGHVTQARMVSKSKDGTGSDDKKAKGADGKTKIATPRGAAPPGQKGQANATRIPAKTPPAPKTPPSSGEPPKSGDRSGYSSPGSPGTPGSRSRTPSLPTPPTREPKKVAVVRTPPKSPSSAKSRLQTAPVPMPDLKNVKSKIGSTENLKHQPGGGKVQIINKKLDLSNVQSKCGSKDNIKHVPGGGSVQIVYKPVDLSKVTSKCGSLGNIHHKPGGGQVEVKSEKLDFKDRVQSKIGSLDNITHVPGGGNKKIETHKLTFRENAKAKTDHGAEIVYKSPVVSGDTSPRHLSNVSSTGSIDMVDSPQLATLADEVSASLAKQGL
# T1 sequence (P10636 1-441 isoform P10636-8): as above
# T2 sequence (P10636 1-441 isoform P10636-8): as above
Compound,effect on tau aggregation (ThT analysis) (tau),"effect on tau aggregation (ThT and AFM analysis) (tau; 10% DMSO, different concentrations of TF2D-5, 37° C., pH 7.0, AFM after 5 days (FIG. 3))",Kd [1],"koff ([1]; SPR, analyte tau 1.56-100 nM, running buffer TBS with 0.1% Tween (FIG. 2a))",stability in different body fluids [2],"Kd (tau in full-length; 500 nM labelled peptide, tau 2.5 μM to 0.2 pM, 1×PBS pH 7.4 with 150 mM NaCl (FIG. 4A))","Kd (tau in full-length; 62.5 nM labelled peptide, tau 300 nM to 0.5 nM, 0.1 M sodium phosphate buffer pH 7.4, 75 mM sodium sulphate, 0.05% Tween 20 (FIG. 4B))",effect on number of cells with tau aggregates (tauk18 (LM)-YFP cells; cells seeded with sonified tau fibrils (FIG. 5)),"concentration at which reduction in number of cells with tau aggregates was significant (tauk18 (LM)-YFP cells; further reduced at 25 μM and 50 μM, one-way ANOVA, Dunnett's test)"
"CC[C@@H](C)[C@@H](NC(=O)[C@@H](Cc1c[nH]cn1)NC(=O)CNC(=O)CNC(=O)[C@H]1CCCN1C(=O)[C@H](NC(=O)[C@@H](CCCCN)NC(=O)[C@@H](Cc1ccccc1)NC(=O)[C@@H](CC(C)C)NC(=O)[C@H](NC(=O)[C@@H](CCC(N)=O)NC(=O)[C@@H](Cc1ccc(O)cc1)NC(=O)CNC(=O)CNC(=O)[C@H](N)CC(=O)O)[C@H](C)CC)[C@H](C)CC)C(=O)N[C@H](Cc1c[nH]cn1)C(N)=O [TF2D-5, dggyqilfkipgghih] (H-[dD]GG[dY][dQ][dI][dL][dF][dK][dI][dP]GG[dH][dI][dH]-NH2)",inhibit tau aggregation,inhibits tau aggregation,1.3 nM,~6e-05 s⁻¹,very stable,0.308 nM,–,–,–
"CC[C@@H](C)[C@@H](NC(=O)[C@@H](Cc1c[nH]cn1)NC(=O)CNC(=O)CNC(=O)[C@H]1CCCN1C(=O)[C@H](NC(=O)[C@@H](CCCCN)NC(=O)[C@@H](Cc1ccccc1)NC(=O)[C@@H](CC(C)C)NC(=O)[C@H](NC(=O)[C@@H](CCC(N)=O)NC(=O)[C@@H](Cc1ccc(O)cc1)NC(=O)CNC(=O)CNC(=O)[C@H](N)CC(=O)O)[C@H](C)CC)[C@H](C)CC)C(=O)N[C@H](Cc1c[nH]cn1)C(=O)N[C@H](CCCNC(=N)N)C(=O)N[C@H](CCCNC(=N)N)C(=O)N[C@H](CCCNC(=N)N)C(=O)N[C@H](CCCNC(=N)N)C(=O)N[C@H](CCCNC(=N)N)C(N)=O [TF2D-5a, dggyqilfkipgghihrrrrr] (H-[dD]GG[dY][dQ][dI][dL][dF][dK][dI][dP]GG[dH][dI][dH][dR][dR][dR][dR][dR]-NH2)",–,–,6.1 nM,–,very stable,–,11.7 nM,concentration-dependent reduction in the number of cells with tau aggregates,12.5 UM
Nemylwhwqypqhlrvg (H-[dN][dE][dM][dY][dL][dW][dH][dW][dQ][dY][dP][dQ][dH][dL][dR][dV]G-NH2; SMILES CSCC[C@@H](NC(=O)[C@@H](CCC(=O)O)NC(=O)[C@H](N)CC(N)=O)C(=O)N[C@H](Cc1ccc(O)cc1)C(=O)N[C@H](CC(C)C)C(=O)N[C@H](Cc1c[nH]c2ccccc12)C(=O)N[C@H](Cc1c[nH]cn1)C(=O)N[C@H](Cc1c[nH]c2ccccc12)C(=O)N[C@H](CCC(N)=O)C(=O)N[C@H](Cc1ccc(O)cc1)C(=O)N1CCC[C@@H]1C(=O)N[C@H](CCC(N)=O)C(=O)N[C@H](Cc1c[nH]cn1)C(=O)N[C@H](CC(C)C)C(=O)N[C@H](CCCNC(=N)N)C(=O)N[C@@H](C(=O)NCC(N)=O)C(C)C) [TF2D-1],inhibit tau aggregation,–,–,–,–,–,–,–,–
